Experimental data from paper PMC12691742, “Anti-Cancer Outcome of Glucocorticoid Receptor Transrepression by Synephrine Derivatives in Hematological Malignancies” (International Journal of Molecular Sciences, 2025).
Like-named read-outs stand apart in the source and are kept apart here.

Columns and labels:
[1] = test system: IL1-α and IL6 mRNA expression in K562 and Granta cells; assay: Q-PCR of GR transrepression marker genes; type: cell-based
Description: Figure 4 Effects of synephrine derivatives on GR transrepression in Granta lymphoma and K562 leukemia cells. (A) K562 and Granta cells stably infected with the lentiviruses bearing the NF-kB luciferase reporter. Cells were incubated for 5 h with the solvent (control), TPA (5 ng/mL), 4S-C2 (10 µM), 8S-E3 (10 µM), 10S-E2 (1 µM), or 13S-G2 (1 µM). Luciferase activity was determined as described in the Materials and Methods section. (B) IL1-α and IL6 mRNA expression in K562 and Granta cells. Q-PCR results were normalized to the expression of the housekeeping gene RPL27 and are presented as the fold change compared to the control. The mean ± SD was calculated for three individual samples/condition (n = 3). Statistically significant differences compared to the control: * p < 0.05, ** p < 0.01.
Total RNA isolation from cell cultures and murine bones, reverse transcription, and Q-PCR were performed as described in [36]. Primers were designed using NCBI Primer-BLAST https://www.ncbi.nlm.nih.gov/tools/primer-blast/, accessed on 25 August 2025 (Supplementary Table S1). Results were normalized to the expression of the housekeeping RPL27 и Rpl27 genes. The experiments were performed in triplicate.

[2] = test system: GR phosphorylated by Ser211 in K562 and Granta cells; assay: Western blot of nuclear phospho-GR (Ser211); type: cell-based; conditions: 10 h; Dex 10 µM, 4S-C2 50 µM, 8S-E3 50 µM, 10S-E2 15 µM, 13S-G2 25 µM
Description: Figure 3 Effects of synephrine derivatives on GR transactivation in Granta lymphoma and K562 leukemia cells. (A) Q-PCR analysis of FKBP51, GILZ, and DDIT4 mRNA expression in K562 and Granta cells. […] The Q-PCR results were normalized to the expression of the housekeeping gene RPL27 and are presented as fold changes compared to the control. The mean ± SD was calculated for three individual samples/condition (n = 3). Statistically significant differences compared to the control: * p < 0.05, ** p < 0.01. (B) The levels of the nuclear fraction of phospho-GR (Ser211) were determined using Western blot analysis (n = 3; characteristic images are presented in the figure). Histone H3 was used as a loading control.
Western blot analysis was performed as previously described. Proteins were resolved using SDS-PAGE. Membranes were blocked with 5% nonfat milk solution and then incubated with primary antibodies against phosphorylated GR (pGR, Ser211) (“Santa Cruz Biotechnology”, Santa Cruz, CA, USA) overnight at 4 °C. To verify equal protein loading and adequate transfer, the membranes were probed with Histone H3 antibodies (“Cell Signaling”, Boston, MA, USA). Goat anti-rabbit IgGs (“Jackson Immuno Research”, West Grove, PA, USA) were used as secondary antibodies. Signals were detected using ECL reagent and an ImageQuant LAS4000 system (“GE HealthCare”, Chicago, IL, USA). ImageJ 1.54h software was used for densitometry. The experiments were performed in triplicate.
7 K562, pGR nuclear 5 Granta, pGR nuclear
Supplementary Figure S 22. Quantification of Western blot analysis. K562 and Granta cells […]
μM) and 13S-G2 (25 μ M) for 10 h. Quantification of Western blot anal ysis of p- GR protein levels was done usin g Im a ge J f ree so ftwar e. Statisticall y significant diff eren ces as compared to control: […]

[3] = test system: primary lymphoblasts from pediatric patients with acute lymphoblastic leukemia; assay: Resazurin cytotoxicity assay in primary lymphoblasts; type: cell-based; conditions: Homo sapiens
Text: Peripheral blood samples were collected from 1–10-year-old pediatric patients with newly diagnosed ALL in the acute phase of the disease or from adult healthy volunteers at N.N. Blokhin National Research Center of Oncology. The Ethical Committee of the N.N. Blokhin National Research Center of Oncology approved this study, and written informed consents were provided. […] were isolated by centrifugation with Ficoll-Isopaque (“Paneco”, Russia) and then cultured in the RPMI-1640 media (“Paneco”, Russia) supplemented with 20% FBS (“Biowest”, France), 2 mM L-glutamine, 0.5 ME/mL penicillin and 0.5 µg/mL streptomycin (“Paneco”, Russia) and 10 mg/L phytohaemagglutinin (“Paneco”, Moscow, Russia).
Isolated PBMCs were seeded into 96-well plates (2 × 10^6 cells/well) and treated with 10S-E2 at a wide range of concentrations (2–200 µM). Cell viability was analyzed after 24 h of incubation, assessing metabolic activity with the addition of 0.177 mg/mL of resazurin at 8–10 h before the end of the incubation. Fluorescence intensity was evaluated using a Fluoroskan FL microplate fluorimeter (“Thermo Scientific”, Waltham, MA, USA). The IC50 values were determined using GraphPad Prism (Ver.7.0) software. The experiments were performed in triplicate.

[4] = test system: leukemia and lymphoma cells (Granta, K562); design: method as in PMID 39858397; conditions: cited from earlier work

Q: What does the source list for `CCCCCCNCC(O)c1ccc(OCc2ccccc2)cc1` (stereo not drawn) [10S-E2, 1-[4-(benzyloxy)phenyl]-2-(hexylamino)ethanol]?
A: expression of GR TR marker genes IL1-α and IL6 [1]: downregulation; GR phosphorylation level at Ser211 [2]: did not affect the phosphorylation; IC50 ([3]; 24 h, patient code 3, 24 h, read-out: IC50 of cytotoxic effect): 40.9 ± 3.12 µM; IC50 ([3]; 24 h, patient code 4, 24 h, read-out: IC50 of cytotoxic effect): 43.2 ± 9.48 µM; IC50 ([3]; 24 h, patient code 7, 24 h, read-out: IC50 of cytotoxic effect): 43 ± 0.71 µM; IC50 ([3]; 24 h, patient code 8, 24 h, read-out: IC50 of cytotoxic effect): 60.6 ± 0.97 µM; IC50 ([3]; 24 h, patient code 10, 24 h, read-out: IC50 of cytotoxic effect): 71.3 ± 5.59 µM; IC50 ([3]; 24 h, patient code 12, 24 h, read-out: IC50 of cytotoxic effect): 75.7 ± 4.63 µM; IC50 ([3]; 24 h, patient code 20, 24 h, read-out: IC50 of cytotoxic effect): 64.2 ± 0.55 µM; IC50 ([3]; 24 h, patient code 21, 24 h, read-out: IC50 of cytotoxic effect): 49.4 ± 1.95 µM; IC50 ([3]; 24 h, patient code 23, 24 h, read-out: IC50 of cytotoxic effect): 55.2 ± 2.25 µM; IC50 ([3]; 24 h, patient code 24, 24 h, read-out: IC50 of cytotoxic effect): 70.3 ± 2.54 µM; IC50 ([3]; 24 h, patient code 25, 24 h, read-out: IC50 of cytotoxic effect): 80.3 ± 4.09 µM; IC50 ([3]; 24 h, patient code 30, 24 h, read-out: IC50 of cytotoxic effect): 52.4 ± 0.07 µM; IC50 ([3]; 24 h, patient code 31, 24 h, read-out: IC50 of cytotoxic effect): 63.2 ± 1.42 µM; IC50 ([3]; 24 h, patient code 33, 24 h, read-out: IC50 of cytotoxic effect): 67.6 ± 4.02 µM; IC50 ([3]; 24 h, patient code 34, 24 h, read-out: IC50 of cytotoxic effect): 55 ± 1.91 µM; IC50 ([3]; 24 h, patient code 35, 24 h, read-out: IC50 of cytotoxic effect): 65.9 ± 0.27 µM; IC50 ([3]; 24 h, patient code 37, 24 h, read-out: IC50 of cytotoxic effect): 69.8 ± 3.66 µM; IC50 ([3]; 24 h, patient code 39, 24 h, read-out: IC50 of cytotoxic effect): 71.3 ± 2.59 µM; IC50 ([3]; 24 h, patient code 46, 24 h, read-out: IC50 of cytotoxic effect): 71.5 ± 2.08 µM; IC50 ([3]; primary lymphoblast samples from 19 patients diagnosed with ALL, read-out: IC50 of cytotoxic effect, range over samples): 40 to 70 µM; IC50 ([4]; leukemia and lymphoma cells, read-out: cell viability IC50): 13 to 26 µM; concentrations of cytotoxic effects ([4]; mantle cell lymphoma Granta and chronic myeloleukemia K562 cells): 10 to 20 µM
